Test results reported in patent US7763602B2, “Pyrrole derivatives as antimycobacterial compounds” (priority 2002, dated 2010).
≈ marks a conversion by molar mass, not a printed value.

Experiments:
Assay type in all cases: cell-based, Mycobacterium tuberculosis
[1] = test system: M. tuberculosis H37Rv ATCC 27294; experiment: In vitro growth inhibition assay, BACTEC 460 TB system; set-up: key: +: If ΔGI of test vial is less than that of the control vial the culture was sensitive to the test compound; settings: final concentration 6.25 μg/ml
M. tuberculosis 27294 = experiment: In vitro agar dilution assay (MIC), reference strain; settings: for MIC (μg/ml) against M. tuberculosis-27294: Table I; for MIC: Mycobacterium tuberculosis, 27294, Table I, read-out: MIC (μg/ml) against M. tuberculosis-27294
[2] = test system: M. tuberculosis clinical isolates, sensitive; experiment: microbe, parasite or virus in culture; settings: for MIC (μg/ml) against Clinical isolates Sensitive: Table I, agar dilution; for MIC: Mycobacterium tuberculosis, read-out: MIC (μg/ml) against Clinical isolates Sensitive

Structure (SMILES) | Growth inhibition of M. tuberculosis 27294 [1] | MIC (μg/ml) against M. tuberculosis-27294 (M. tuberculosis 27294) [µg/mL] | MIC (μg/ml) against Clinical isolates Sensitive [2] | MIC (M. tuberculosis 27294) [µg/mL] | MIC [2] [µg/mL]
Cc1cc(CN2CCN(c3ccccn3)CC2)c(-c2ccccc2)n1NC(=O)c1cnccn1 [compound 34, N-(3-{[4-(2-pyridyl)piperazinyl]methyl}-5-methyl-2-phenylpyrrolyl)pyrazin-2-ylcarboxamide] | + | 16.0 (≈ 35.3 µM) | 16.0-16.0 μg/ml | – | –
CCC(CO)n1c(C)c(CN2CCSCC2)c(CO)c1-c1ccccc1 (stereo not drawn) [compound 90, 2-[3-(hydroxymethyl)-5-methyl-2-phenyl-4-(1,4-thiazaperhydroin-4-ylmethyl)-pyrrolyl]butan-1-ol] | – | >16.0 | >16.0 µg/mL | – | –
CO[C@H]1/C=C/O[C@@]2(C)Oc3c(C)c(O)c4c(O)c(c(/C=N/N5CCN(C)CC5)c(O)c4c3C2=O)NC(=O)/C(C)=C\C=C\[C@H](C)[C@H](O)[C@@H](C)[C@@H](O)[C@@H](C)[C@H](OC(C)=O)[C@@H]1C [Rifampicin, reference compound] | + | – | – | 0.25 (≈ 0.304 µM) | 0.25 (≈ 0.304 µM)
Cc1c(CN2CC[S+]([O-])CC2)cc(-c2ccccc2)n1-c1ccccc1 [compound 87, 4-[(2-methyl-1,5-diphenylpyrrol-3-yl)methyl]1,4-thiazaperhydroin-1-one] | + | 8.0 (≈ 21.9 µM) | 8.0 to 16.0 µg/mL | – | –
Cc1cc(CN2CCN(c3ccc(F)cc3)CC2)c(-c2ccccc2)n1-c1ccc(F)cc1F [compound 55, 1-{[1-(2,4-difluorophenyl)-5-methyl-2-phenylpyrrol-3-yl]methyl}-4-(4-fluorophenyl) piperazine] | – | – | – | > 16 | > 16
COc1ccccc1N1CCN(Cc2cc(-c3ccc(Cl)cc3)n(NC(=O)c3cnccn3)c2C)CC1 [compound 38, N-(5-(4-chlorophenyl)-3-{[4-(2-methoxyphenyl)piperazinyl]methyl}-2-methylpyrrolyl)pyrazin-2-ylcarboxamide] | – | >16.0 | >16.0 µg/mL | – | –
Cc1cc(CN2CCN(Cc3ccc4c(c3)OCO4)CC2)c(-c2ccccc2)n1NC(=O)c1cnccn1 [compound 35, N-(3-{[4-(2H-benzo[3,4-d]1,3-dioxolan-5-ylmethyl)piperazinyl]methyl}-5-methyl-2-phenylpyrrolyl)pyrazin-2-ylcarboxamide] | + | >16.0 | >16.0 µg/mL | – | –
Cc1c(CN2CCN(C(=O)c3ccco3)CC2)cc(-c2ccc(Cl)cc2)n1-c1ccc(Cl)cc1 [compound 7, 4-{[1,5-bis(4-chlorophenyl)-2-methylpyrrol-3-yl]methyl}piperazinyl-2-furyl-ketone] | + | 4.0 (≈ 8.09 µM) | 1.0 to 4.0 µg/mL | – | –
Cc1c(CN2CCN(Cc3ccc4c(c3)OCO4)CC2)cc(-c2ccc(Cl)cc2)n1-c1ccc(F)cc1F [compound 50, 5-[(4-{[1-(2,4-difluorophenyl)-5-(4-chlorophenyl)-2-methylpyrrol-3-yl]-methyl}-piperazinyl)methyl]-2H-benzo[d]1,3-dioxolane] | + | 2.0 (≈ 3.73 µM) | 2.0 to 4.0 µg/mL | – | –
Cc1cc(CN2CCN(Cc3ccc4c(c3)OCO4)CC2)c(-c2ccccc2)n1NC(=O)c1ccncc1 [compound 24, N-(3-{[4-(2H-benzo[d]1,3-dioxolan-5-ylmethyl)piperazinyl]methyl}-5-methyl-2-phenylpyrrolyl)-4-pyridylcarboxamide] | + | 8.0 (≈ 15.7 µM) | – | – | –
COc1ccccc1N1CCN(Cc2cc(C)n(-c3cccc4ccccc34)c2-c2ccc(Cl)cc2)CC1 [compound 63, 1-{[2-(4-chlorophenyl)-5-methyl-1-naphthylpyrrol-3-yl]methyl}-4-(2-methoxyphenyl)piperazine] | + | 8.0 (≈ 15.3 µM) | 4.0 to 8.0 µg/mL | – | –
Cc1c(CN2CCN(C(c3ccccc3)c3ccccc3)CC2)cc(-c2ccc(Cl)cc2)n1-c1ccc(F)cc1F [compound 48, 1-{[1-(2,4-difluorophenyl)-5-(4-chlorophenyl)-2-methylpyrrol-3-yl]methyl}-4-(4-diphenylmethyl)piperazine] | + | >16.0 | >16.0 µg/mL | – | –
Cc1c(CN2CCN(c3ccc(F)cc3)CC2)cc(-c2ccccc2)n1NC(=O)c1cnccn1 [compound 25, N-(3-{[4-(4-fluorophenyl)piperazinyl]methyl}-2-methyl-5-phenylpyrrolyl)pyrazin-2-ylcarboxamide] | + | 2.0 (≈ 4.25 µM) | 2.0 to 4.0 µg/mL | – | –
Cc1cc(CN2CCN(C(c3ccccc3)c3ccccc3)CC2)c(-c2ccccc2)n1NC(=O)c1cnccn1 [compound 36, N-(3-{[4-(diphenylmethyl)piperazinyl]methyl}-5-methyl-2-phenylpyrrolyl) pyrazin-2-ylcarboxamide] | + | 0.5 (≈ 0.921 µM) | 0.5 to 1.0 µg/mL | – | –
Cc1c(CN2CCN(c3ccccn3)CC2)cc(-c2ccccc2)n1NC(=O)c1cnccn1 [compound 28, N-(3-{[4-(2-pyridyl)piperazinyl]methyl}-2-methyl-5-phenylpyrrolyl)pyrazin-2-ylcarboxamide] | – | 2.0 (≈ 4.41 µM) | 1.0 to 4.0 µg/mL | – | –
Cc1cc(CN2CCN(c3cccc(C(F)(F)F)c3)CC2)c(-c2ccc(Cl)cc2)n1-c1cccc2ccccc12 [compound 64, 1-{[2-(4-chlorophenyl)-5-methyl-1-naphthylpyrrol-3-yl]methyl}-4-(3-trifluoromethylphenyl)piperazine] | – | >16.0 | >16.0 µg/mL | – | –
COc1ccccc1N1CCN(Cc2cc(C)n(NC(=O)c3cnccn3)c2-c2ccccc2)CC1 [compound 32, N-(3-{[4-(2-methoxyphenyl)piperazinyl]methyl}-5-methyl-2-phenylpyrrolyl) pyrazin-2-ylcarboxamide] | – | >16.0 | >16.0 µg/mL | – | –
Cc1c(CN2CCCC2)cc(-c2ccccc2)n1NC(=O)c1ccncc1 [compound 19, N-[2-methyl-5-phenyl-3-(pyrrolidinylmethyl)pyrrolyl]-4-pyridylcarboxamide] | – | 16.0 (≈ 44.4 µM) | – | – | –
Cc1c(CN2CCN(c3cccc(C(F)(F)F)c3)CC2)cc(-c2ccccc2)n1-c1ccc(F)cc1F [compound 53, 1-{[1-(2,4-difluorophenyl)-2-methyl-5-phenylpyrrol-3-yl]methyl}-4-(3-trifluoromethylphenyl)piperazine] | – | – | – | > 16 | > 16
Cc1c(CN2CCN(c3ccc(F)cc3)CC2)cc(-c2ccc(Cl)cc2)n1NC(=O)c1cnccn1 [compound 37, N-(5-(4-chlorophenyl)-3-{[4-(4-fluorophenyl)piperazinyl]methyl}-2-methylpyrrolyl)pyrazin-2-ylcarboxamide] | – | 16.0 (≈ 31.7 µM) | 8 to 16.0 µg/mL | – | –
Cc1cc(CN2CCN(c3ccc(F)cc3)CC2)c(-c2ccc(Cl)cc2)n1NC(=O)c1cnccn1 [compound 41, N-(2-(4-chlorophenyl)-3-{[4-(4-fluorophenyl)piperazinyl]methyl}-5-methylpyrrolyl)pyrazin-2-ylcarboxamide] | – | >16.0 | >16.0 µg/mL | – | –
Cc1cc(CN2CCN(c3cccc(C(F)(F)F)c3)CC2)c(-c2ccc(Cl)cc2)n1NC(=O)c1cnccn1 [compound 43, N-(2-(4-chlorophenyl)-3-{[4-(3-trifluoromethylphenyl)piperazinyl]methyl}-5-methylpyrrolyl)pyrazin-2-ylcarboxamide] | – | >16.0 | >16.0 µg/mL | – | –
Cc1c(CN2CCN(c3ccc(F)cc3)CC2)cc(-c2ccccc2)n1-c1ccc(F)cc1F [compound 51, 1-{[1-(2,4-difluorophenyl)-2-methyl-5-phenylpyrrol-3-yl]methyl}-4-(4-fluorophenyl)piperazine] | – | – | – | > 16 | > 16
COc1ccccc1N1CCN(Cc2cc(-c3ccc(Cl)cc3)n(-c3cccc4ccccc34)c2C)CC1 [compound 59, 1-{[5-(4-chlorophenyl)-2-methyl-1-naphthylpyrrol-3-yl]methyl}-4-(2-methoxyphenyl)piperazine] | – | >16.0 | >16.0 µg/mL | – | –
